# According to PubChem BioAssay AID2060616 (Molecular Pharmacology Branch, DTP, NCI, 2025):
# Test system: 377384-186-R-J1-PDC complex spheroid viability
# Experiment: Anticancer human tumor 377384-186-R-J1-PDC patient-derived pancreatic carcinoma cell line growth inhibition [CLK]
# Conditions: for IC50: curve of first compound; for viability, T/C: stronger effect = lower value
# Outline: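 Patient-derived tumor cells grown as complex spheroids with HUVEC endothelial cells and mesenchymal stem cells, treated with drug combinations. Concentrations descend in half-log steps from near clinical Cmax, or from 10 microM if Cmax unknown.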
# 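Note: spheroids exposed to agents for 7 days before reading.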
# 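Throughout, for viability, T/C: luminescence signal used as a stand-in for viable cells.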
smiles,measurement,setting,value
CC(CO)NC(=O)c1cc(-c2ccc(Cl)cc2)nn(-c2cnn(C)c2)c1=O (configuration not stated) + CNC(=O)c1ccc(Nc2nc(OC3CCCC3)c3c(-c4ccc5nc(C)oc5c4)c[nH]c3n2)c(OC)c1,IC50,second compound 0.0316 µM,9.17 µM
same,IC50,second compound 0.1 µM,3.3 µM
same,IC50,second compound 0.316 µM,< 0.0316 µM
same,IC50,second compound 1 µM,< 0.0316 µM
same,IC50,second compound 3.16 µM,< 0.0316 µM
same,IC50,second compound 10 µM,< 0.0316 µM
same,"viability, T/C","second compound 0.0316 µM, first compound 0.0316 µM",102%
same,"viability, T/C","second compound 0.0316 µM, first compound 0.1 µM",120%
same,"viability, T/C","second compound 0.0316 µM, first compound 0.316 µM",117%
same,"viability, T/C","second compound 0.0316 µM, first compound 1 µM",106%
same,"viability, T/C","second compound 0.0316 µM, first compound 3.16 µM",85.1%
same,"viability, T/C","second compound 0.0316 µM, first compound 10 µM",47.1%
same,"viability, T/C","second compound 0.1 µM, first compound 0.0316 µM",64.1%
same,"viability, T/C","second compound 0.1 µM, first compound 0.1 µM",75.6%
same,"viability, T/C","second compound 0.1 µM, first compound 0.316 µM",55.4%
same,"viability, T/C","second compound 0.1 µM, first compound 1 µM",58.4%
same,"viability, T/C","second compound 0.1 µM, first compound 3.16 µM",53.1%
same,"viability, T/C","second compound 0.1 µM, first compound 10 µM",35.9%
same,"viability, T/C","second compound 0.316 µM, first compound 0.0316 µM",23.6%
same,"viability, T/C","second compound 0.316 µM, first compound 0.1 µM",25.4%
same,"viability, T/C","second compound 0.316 µM, first compound 0.316 µM",24.7%
same,"viability, T/C","second compound 0.316 µM, first compound 1 µM",22.7%
same,"viability, T/C","second compound 0.316 µM, first compound 3.16 µM",24.4%
same,"viability, T/C","second compound 0.316 µM, first compound 10 µM",20.5%
same,"viability, T/C","second compound 1 µM, first compound 0.0316 µM",26.8%
same,"viability, T/C","second compound 1 µM, first compound 0.1 µM",20.7%
same,"viability, T/C","second compound 1 µM, first compound 0.316 µM",21%
same,"viability, T/C","second compound 1 µM, first compound 1 µM",22%
same,"viability, T/C","second compound 1 µM, first compound 3.16 µM",20.5%
same,"viability, T/C","second compound 1 µM, first compound 10 µM",17.8%
same,"viability, T/C","second compound 3.16 µM, first compound 0.0316 µM",21%
same,"viability, T/C","second compound 3.16 µM, first compound 0.1 µM",21.2%
same,"viability, T/C","second compound 3.16 µM, first compound 0.316 µM",21.7%
same,"viability, T/C","second compound 3.16 µM, first compound 1 µM",23.9%
same,"viability, T/C","second compound 3.16 µM, first compound 3.16 µM",22.3%
same,"viability, T/C","second compound 3.16 µM, first compound 10 µM",19.6%
same,"viability, T/C","second compound 10 µM, first compound 0.0316 µM",22.5%
same,"viability, T/C","second compound 10 µM, first compound 0.1 µM",21.3%
same,"viability, T/C","second compound 10 µM, first compound 0.316 µM",20.4%
same,"viability, T/C","second compound 10 µM, first compound 1 µM",19.9%
same,"viability, T/C","second compound 10 µM, first compound 3.16 µM",18.1%
same,"viability, T/C","second compound 10 µM, first compound 10 µM",19.1%
